# Columns and labels:
# bFGF mRNA = assay: Retinal bFGF mRNA upregulation, Northern blot after single IP injection; conditions: single IP injection 20 mg/kg; retina harvested after 12 hours in the dark; bFGF/18S
# CNTF mRNA = assay: Retinal CNTF mRNA upregulation, Northern blot after single IP injection; conditions: single IP injection 20 mg/kg; retina harvested after 12 hours in the dark; CNTF/18S
# Male Sprague Dawley rats [1] = assay: Photo-oxidative (blue-light) induced retinopathy, systemic IP dosing, ERG; conditions: for Protection of retina function against light-induced retinal degeneration: 20 and 40 mg/kg IP; for Persistence of protection after a 4-week recovery period: IP dosing
# From the text: The purpose of Experiment 1 was to determine if selective β-adrenoceptor antagonists, in particular betaxolol (racemic), levobetaxolol (S-isomer), and betaxolol (R-isomer) are neuroprotective and can rescue retinal cells from a photo-oxidative induced retinopathy. The purpose of Experiment 2 was to determine the dose-dependent efficacy of timolol, a potent non-selective β1- and β2-blocker, in this photo-oxidative stress model. Male Sprague Dawley rats were randomly assigned to drug or vehicle experimental groups. Rats received three intraperitoneal (IP) injections of either vehicle or drug at 48, 24, and 0 hours prior to a 6-hour light exposure to spectrally filtered blue light (˜220 fc). Control rats were housed in their home cage under normal cyclic light exposure. Control rats were not dosed with either vehicle or drug. The ERG is a non-invasive clinical measurement of the electrical response of the eye to a flash of light. The a-wave and b-wave are two components of the ERG that are diagnostic of retinal function. The a-wave reflects outer retina function and is generated by interactions between photoreceptor and RPE while the b-wave reflects inner retina function, particularly on-bipolar cells. […] Changes in the a-wave amplitude or latency are diagnostic of outer retina pathology. The ERG was recorded after a five day recovery period from dark-adapted anesthetized rats (ketamine-HCl, 75 mg/Kg; xylazine, 6 mg/Kg). The eye's electrical response to a flash of light was elicited by viewing a ganzfeld. ERGs to a series of light flashes increasing in intensity were digitized to analyze temporal characteristics of the waveform and response voltage-log intensity relationship.
# Male Sprague Dawley rats [2] = conditions: 0.5% topical ocular b.i.d.; for Protection of retinal function compared to vehicle dosed rats: two drops per eye, 17 days before and 2 days after light exposure, ERG five days after
# Method: The purpose of this experiment was to determine the degree of retinal protection that could be measured in rats following topical ocular dosing. Levobetaxolol (0.5%), (racemic) betaxolol (0.5%), and vehicle were evaluated in the photic retinopathy model. Induction of photochemical lesions and evaluation of retinal function with the ERG were performed as described in the photo-oxidative induced retinopathy paradigm used in Example 1.
# Male Sprague Dawley rats were randomly assigned to either a vehicle dosed group (N=10), (racemic) betaxolol (0.5%) dosed group (N=10) or levobetaxolol (0.5%) dosed group (N=10). Rats were dosed topical ocular (b.i.d.) with two drops per eye. Rats were pre-dosed for 17 days prior to light exposure and dosed an additional two days after the light exposure. Control rats (N=4) were housed in their home cage under normal cyclic light exposure.
# [3] = test system: rat ischemia/reperfusion injury model; conditions: literature; cited from earlier work
# chick retinal cells = conditions: in vitro; literature; cited from earlier work
# rabbit inner retina = conditions: in vitro; literature; cited from earlier work
# cortical cultures = conditions: in vitro; literature; cited from earlier work
# [4] = Light damage paradigms: prevention of light-induced functional or morphological changes; assay type: in vivo; conditions: applicant's light damage paradigms
# [5] = test system: P23H mutant rhodopsin transgenic rats
# Method: The P23H rhodopsin mutated transgenic rat has a specific rhodopsin mutation that has been identified in subsets of patients with RP. This degeneration is characterized by a slow degeneration of retinal photoreceptors and marked reduction in the electroretinogram. As in light damage, photoreceptor loss is primarily through an apoptotic process.
# At the time of weaning, rats are randomly assigned to either a drug or vehicle group. Rats were dosed (oral gavage) with vehicle or levobetaxolol (40 mg/kg,) every other day. […] ERGs were recorded as described in Example 1.
compound,measurement,setting,value
Brc1c(NC2=NCCN2)ccc2nccnc12 [brimonidine],Increase in bFGF mRNA expression,bFGF mRNA,14 fold
same,"CNTF mRNA expression upregulation, factor compared to background expression",CNTF mRNA,not upregulated
"CC(C)NCC(O)COc1ccc(CCOCC2CC2)cc1 (racemic) [betaxolol (racemic), betaxolol]","Maximum a-wave response amplitude, fold higher than vehicle dosed rats","Male Sprague Dawley rats [1]; 20 mg/kg IP at 48, 24, 0 h before 6-hour blue light, 5-day recovery",1.9 fold
same,"Maximum a-wave response amplitude, fold higher than vehicle dosed rats","Male Sprague Dawley rats [1]; 40 mg/kg IP at 48, 24, 0 h before 6-hour blue light, 5-day recovery",2.1 fold
same,Protection of retina function against light-induced retinal degeneration,Male Sprague Dawley rats [1]; 5-day recovery,dose-dependent protection
same,ERG response amplitudes vs vehicle dosed rats,Male Sprague Dawley rats [2],higher but not significantly different
same,Protection of retinal function compared to vehicle dosed rats,Male Sprague Dawley rats [2],No significant protection
same,ERG b-wave deficit after ischemia/reperfusion,[3],protected
same,Kainate induced elevation of intracellular calcium,chick retinal cells,prevent
same,Changes in GABA immunoreactivity following glucose-oxygen deprivation,rabbit inner retina,partially inhibited
same,Glutamate-induced release of lactate dehydrogenase,cortical cultures,partially prevented
"CC(C)NCC(O)COc1ccc(CCOCC2CC2)cc1 (stereo not drawn) [Betaxolol (R-isomer), betaxolol]",Protection of retina function against light-induced retinal degeneration,Male Sprague Dawley rats [1]; 5-day recovery,Partial but significant protection
same,"ERGs, % of normal",Male Sprague Dawley rats [1]; 20 or 40 mg/kg IP,approximately 64%
same,Persistence of protection after a 4-week recovery period,Male Sprague Dawley rats [1],persisted
Fc1ccc(C(c2ccc(F)cc2)N2CCN(C/C=C/c3ccccc3)CC2)cc1 [flunarizine],Effectiveness in preventing light-induced functional or morphological changes,[4],moderately effective
CC(C)NC[C@H](O)COc1ccc(CCOCC2CC2)cc1 [levobetaxolol],ERG amplitude relative to vehicle-dosed rats,"Male Sprague Dawley rats [1]; 20 mg/kg IP, 5-day recovery",twice
same,"ERG amplitudes, % of normal","Male Sprague Dawley rats [1]; 20 mg/kg IP, 5-day recovery",69%
same,Protection of the retinal response to a flash of light,"Male Sprague Dawley rats [1]; 40 mg/kg IP, 5-day recovery",Complete protection
same,Protection of retina function against light-induced retinal degeneration,Male Sprague Dawley rats [1]; 5-day recovery,significant protection
same,Persistence of protection after a 4-week recovery period,Male Sprague Dawley rats [1],persisted
same,Amelioration of photic induced retinopathy (retinal function vs control rats),Male Sprague Dawley rats [2],completely to ameliorated
same,Protection of retinal function compared to vehicle dosed rats,Male Sprague Dawley rats [2],significant protection
same,"Outer retinal function, % better than vehicle dosed rats","[5]; 40 mg/kg oral every other day, 6-month old rats",32%
same,Loss of retinal function compared to vehicle dosed rats,"[5]; 40 mg/kg oral gavage every other day, 3- and 6-month old rats",significantly attenuated
same,Increase in bFGF mRNA expression,bFGF mRNA,13 fold
same,"CNTF mRNA expression upregulation, factor compared to background expression",CNTF mRNA,2.3
COCCOC(=O)C1=C(C)NC(C)=C(C(=O)OC(C)C)C1c1cccc([N+](=O)[O-])c1 (stereo not shown) [nimodipine],Effectiveness in preventing light-induced functional or morphological changes,[4],no effect
Cc1c(C)c2c(c(C)c1O)CC[C@@](C)(CCC[C@H](C)CCC[C@H](C)CCCC(C)C)O2 [alpha-tocopherol],Effectiveness in preventing light-induced functional or morphological changes,[4],ineffective

# — patent US8710102B2, “Use of beta-adrenoceptor antagonists for the manufacture of a medicament of the treatment of disorders of the outer retina” (Novartis AG, priority 1999, dated 2014)
